Patent US12234223B2, “Phthalazinone compound, and preparation method therefor and medical use thereof” (SHANGHAI JEMINCARE PHARMACEUTICALS CO., LTD, priority 2020, dated 2025)

Experiments:
Androgen receptor = target: T1, Androgen receptor (Homo sapiens, UniProt P10275); assay: Androgen receptor In-Cell-Western assay (AR degradation in VCaP cells); assay type: cell-based; conditions: 24 hours treatment; for DC50: concentration for half the maximum degradation degree of AR in VCaP cells; for Dmax: maximum degradation degree of AR in VCaP cells
T1 construct: Dmax: a maximum degradation degree of AR in VCaP cells; endogenous in cells; host or cells: VCaP cells
T1 sequence (P10275 1-920): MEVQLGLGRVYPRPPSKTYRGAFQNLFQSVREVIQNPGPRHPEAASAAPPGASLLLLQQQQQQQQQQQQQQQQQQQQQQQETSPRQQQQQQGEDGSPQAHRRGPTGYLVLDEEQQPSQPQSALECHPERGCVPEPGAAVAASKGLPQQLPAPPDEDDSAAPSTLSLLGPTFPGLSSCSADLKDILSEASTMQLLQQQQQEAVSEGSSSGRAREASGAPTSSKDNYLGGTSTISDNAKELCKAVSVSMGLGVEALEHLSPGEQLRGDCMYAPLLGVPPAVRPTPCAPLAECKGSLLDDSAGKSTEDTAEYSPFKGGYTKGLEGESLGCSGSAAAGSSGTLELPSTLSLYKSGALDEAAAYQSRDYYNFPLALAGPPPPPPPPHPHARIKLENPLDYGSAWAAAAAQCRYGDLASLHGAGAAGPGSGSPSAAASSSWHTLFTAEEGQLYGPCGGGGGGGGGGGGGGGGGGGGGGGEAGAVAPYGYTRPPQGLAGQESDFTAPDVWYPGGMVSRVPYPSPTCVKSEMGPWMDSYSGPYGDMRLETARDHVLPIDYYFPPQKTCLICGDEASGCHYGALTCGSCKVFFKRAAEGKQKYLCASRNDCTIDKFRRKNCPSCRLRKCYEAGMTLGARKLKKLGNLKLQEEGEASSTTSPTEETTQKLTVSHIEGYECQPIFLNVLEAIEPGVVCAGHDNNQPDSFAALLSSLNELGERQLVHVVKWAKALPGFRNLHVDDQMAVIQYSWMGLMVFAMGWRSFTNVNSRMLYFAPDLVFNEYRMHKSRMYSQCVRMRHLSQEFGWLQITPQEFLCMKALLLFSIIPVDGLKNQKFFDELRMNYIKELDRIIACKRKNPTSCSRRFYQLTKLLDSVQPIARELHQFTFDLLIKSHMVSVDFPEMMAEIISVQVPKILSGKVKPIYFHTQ
Description: This assay evaluated compound performance in VCap cells. An intracellular androgen receptor was assayed by In-Cell-Western according to the assay procedure described below.
In a 96-well cell culture plate (Corning 3599) pretreated by poly-D-Lysin, Vcap cells were seeded to a Vcap cell assay medium [phenol red containing DMEM (Gibco Cat. No.: 11995065); fetal bovine serum FBS (Gibco Cat. No.: 10099141C)] at a volume of 100 μL/well and a cell density of 50,000 cells/well. Cells were cultured for at least two days. • 1. First, cells were treated with a compound. The compound was subjected to a gradient dilution by using DMSO and a cell culture medium, so that DMSO contained in the cell culture plate was diluted to 0.5%: a polypropylene plate was used according to the following protocol: • (1) (i) A 200× stock solution plate was prepared in DMSO; (ii) a 10 mM stock solution was diluted at 1:4 (10 μL stock solution+40 μL DMSO=2000 uM) with DMSO to enter row 2; (iii) a 1:4 (10 μL protac+40 μL DMSO) gradient dilution was performed from row 2 to row 9, row 1 was reserved for a 2000 uM reference compound and row 10 was reserved for DMSO. (iv) There were 8 concentrations (the final concentrations on the 200× plate was 2000 uM, 400 uM, 80 uM, etc.) in total. (2) (i) A 3× stock solution was prepared in the medium; (ii) 3 μL of the 200× stock solution was transferred to 197 μL of the medium (by a 12-channel pipette, from row 1 to row 10), i.e. a 3× stock solution plate. (iii) Uniform mixing was performed for the stock solution plate. (3) (i) The medium of Vcap cells was replaced with a fresh medium, with the medium volume of 100 μL. (ii) The uniformly-mixed 3× stock solution was transferred to the cell culture plate (by the 12-channel pipette, 50 μL of the stock solution was transferred from row 1 to row 10). (iii) The cells were cultured for 24 hours. • 2. The expression level of the intracellular androgen receptor after compound treatment was detected, and assay was performed according to the following method. • (1) (i) An equal volume of 8% paraformaldehyde was added to the cell culture plate for cell fixation. A fixative solution in the cell plate was discarded, and the cell plate was washed three times with PBS. (ii) A Triton solution was prepared (the stock solution was diluted at 1:1000). The solution in the cell plate was discarded, and a volume of 200 μL of a Triton diluent was added to each well. (iii) A 2× blocking solution was prepared (a 10× blocking stock solution was diluted at 1:4). The solution in the cell plate was discarded, and a volume of 100 μL of the 2× blocking solution was added to each well. (iv) A primary antibody solution (Androgen receptor Rabbit mAb, Cell Signaling Technology Cat. No.: 5153; 1:1000 dilution) was prepared. The solution in the cell plate was discarded, a volume of 100 μL of a primary antibody diluent was added to each well, and incubation was performed at 4 degrees overnight. (v) The primary antibody solution was discarded, and the cell plate was washed with 1× Wash buffer (Wash buffer in the present application means a washing buffer solution). (vi) A secondary antibody solution (Goat anti Rabbit IgG (H+L) Secondary Antibody, HRP, Thermo Cat. No.: 31460; 1:5000 dilution) was prepared, and a volume of 100 μL of a secondary antibody diluent was added to each well for incubation. (vii) The secondary antibody solution in the cell plate was discarded, and the cell plate was washed with 1× Wash buffer. (viii) A TMB chromogenic solution (BD Cat. No.: 550534) was prepared, and a volume of 100 μL of the chromogenic solution was added to each well. (ix) A volume of 50 μL of a stop solution (BD Cat. No.: 550534) was added to each well. (x) Absorption values at OD 450 nm and 570 nm were read by EnVision. (2) (i) Normalized analysis was performed for the number of cells in each well. The solution in the cell plate was discarded, and the cell plate was washed three times with wash buffer. […]

VCaP cells = assay: Inhibitory effect on VCaP cell proliferation (Cell Titer Glo); assay type: cell-based; conditions: Homo sapiens, 144 h; for IC50: VCaP cells, 5% FBS and 0.1 nM R1881, 6 days; for Emax: maximum degree of VCaP cell proliferation inhibition, 6 days
Description: A tumor cell line Vcap (ATCC Cat. No. CRL-2876) was respectively cultured with DMEM (Gibco Cat. No. 11965-092) medium containing 10% FBS (Gibco Cat. No. 10099-141C). During testing, Vcap cells were replaced with a DMEM culture fluid containing 5% FBS and 0.1 nM R1881 (Sigma Cat. No. R0908). The assay method was as follows:
Vcap cells were seeded to a 384-well plate (Perkin Elmer Cat. No. 6007460) at a cell density of 1200 cells/well and a volume of 20 μL/well; after the cells were incubated overnight in a carbon dioxide incubator (Thermo), the prepared compound solutions with different concentrations were added at a volume of 5 μL/well; meanwhile, a corresponding solvent was provided as a control; after the cells were continuously incubated in the incubator for 6 days, the cell plate and the contents thereof were equilibrated to room temperature; 25 μL of a Cell Titer Glor (Promega Cat. No. G7573) reagent was added to each well; after vibration and uniform mixing, incubation in the dark was performed for 10-30 minutes, and a signal value was detected with Envision microplate reader (PerkinElmer).
A percentage inhibition rate of compound-treated wells was calculated through solvent control wells on the plate, GraphPad prism was used to fit the percentage inhibition rate data corresponding to different concentrations, and IC50 value was calculated by a 4-parameter nonlinear logistic formula.
Emax: a maximum degree of VCaP cell proliferation inhibition. IC50: a compound concentration required to achieve half the maximum degree of VCaP cell proliferation inhibition.

| SMILES | DC50 (Androgen receptor) [nM] | Dmax (Androgen receptor) [%] | IC50 (VCaP cells) [nM] | Emax (VCaP cells) [%] |
| --- | --- | --- | --- | --- |
| CC1(C)[C@H](NC(=O)c2ccc(N3CCC(CN4CCN(c5ccc6c(=O)n([C@@H]7CCC(=O)NC7=O)ncc6c5)CC4)CC3)cc2)C(C)(C)[C@H]1Oc1ccc(C#N)c(Cl)c1 [Compound 28B] | 7.2 | 101 | 33 | 71 |
| N#Cc1ccc(O[C@H]2CC[C@H](NC(=O)c3cnc(N4CCC(CN5CCN(c6ccc7c(=O)n(C8CCC(=O)NC8=O)ncc7c6)CC5)CC4)nc3)CC2)cc1Cl (some centres unmarked) [Compound 14] | 11 | 91 | 20 | 61 |
